The values below come from publication PMC9599613 (Biomolecules, 2022).

Like-named read-outs stand apart in the source and are kept apart here.

Experiment [1] has as its target T1, human recombinant 5-LOX (Homo sapiens, UniProt P09917).
T1 sequence (P09917 1-674): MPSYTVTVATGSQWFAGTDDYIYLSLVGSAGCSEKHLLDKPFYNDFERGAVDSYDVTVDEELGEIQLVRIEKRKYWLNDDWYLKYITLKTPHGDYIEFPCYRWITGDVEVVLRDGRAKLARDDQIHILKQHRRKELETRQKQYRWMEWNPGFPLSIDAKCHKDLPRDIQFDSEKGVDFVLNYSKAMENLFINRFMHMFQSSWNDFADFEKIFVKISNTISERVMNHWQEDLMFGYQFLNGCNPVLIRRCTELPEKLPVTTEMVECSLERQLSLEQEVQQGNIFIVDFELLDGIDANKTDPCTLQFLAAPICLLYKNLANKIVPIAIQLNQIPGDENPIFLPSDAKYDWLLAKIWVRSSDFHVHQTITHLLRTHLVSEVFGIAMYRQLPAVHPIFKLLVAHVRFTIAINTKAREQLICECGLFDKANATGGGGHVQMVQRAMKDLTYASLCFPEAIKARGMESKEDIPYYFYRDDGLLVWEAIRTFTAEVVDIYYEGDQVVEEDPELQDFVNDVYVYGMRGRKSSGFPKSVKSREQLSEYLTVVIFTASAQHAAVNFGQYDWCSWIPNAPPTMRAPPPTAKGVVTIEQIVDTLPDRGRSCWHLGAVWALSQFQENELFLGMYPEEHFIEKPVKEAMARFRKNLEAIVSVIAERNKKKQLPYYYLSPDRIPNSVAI
Description: biochemical. The note with it: for inhibition at 62.5 µg/mL / inhibition at 125 µg/mL / inhibition at 250 µg/mL / inhibition at 500 µg/mL / inhibition at 1000 µg/mL: read-out: % 5-LOX Inhibition. On the procedure:
The lipoxygenase assay on our test compounds was performed by utilizing human recombinant 5-LOX [65]. […] The enzyme solution with a concentration of 10,000 U/mL was prepared, whereas 80 mM linoleic acid solution was used as a substrate. Solutions were prepared in a phosphate buffer (50 mM) with a pH of 6.3, which was also utilized as the blank. To start, various concentrations of our test samples were dissolved in 0.25 mL of the buffer, to which 0.25 mL enzyme solution was added and incubated at 25 °C for 5 min. Afterward, the substrate solution (0.1 mL) was added to the mixture and shaken well. […] In this assay, the standard drug was montelukast, and using the following formula, the % inhibitions were calculated: % enzyme inhibition=X−X1/X×100 where X = absorbance of the negative control (with no test sample), and X1 = absorbance of the test compound.

Experiment [2] can be described thus: ABTS free radical scavenging assay. On the procedure:
The antioxidant potentials of isolated phytosteroids 1 and 2 were also determined using the ABTS (2,2′-azino-bis(3-ethylbenzothiazoline-6-sulfonic acid)) standard method. […] This created free radicals within the sample. Afterward, the addition of 50% methanol and the ABTS radical cation solution were adjusted to pH 7.4 by dilution with the phosphate buffer (pH 7.4). […] The positive control was ascorbic acid, and the assay was repeated in triplicate. The percent radical scavenging potential of the test compounds was calculated using the standard reported formula.

A short description of experiment [3]: DPPH free radical scavenging assay. On the procedure:
The antioxidant potentials of isolated compounds (phytosteroids 1 and 2) were determined following the DPPH standard assay. Initially, DPPH (24 mg) was dissolved in methanol (100 mL). Stock solutions of the test compounds were prepared in different dilutions (62.50–1000 μg/mL). From each dilution, 1 mL was mixed with 1 mL of the DPPH solution. The solution mixtures were incubated at room temperature for 0.5 h. Afterward, absorbance was recorded at 517 nm with a UV-visible spectrophotometer. Ascorbic acid was the standard drug, whereas the DPPH solution without the compound was negative control. The percent radical scavenging potential of the test compounds was calculated using the following formula: % DPPH activity=X−X1/X×100 where X = absorbance of the control, and X1 = absorbance of the test compound.
(Loss of DPPH colour is used to gauge radical scavenging.)

The target in experiment [4] is COX-1 (Homo sapiens, UniProt P23219). Put plainly: biochemical. The note with it: read-out: % COX-1 Inhibition. On the procedure:
(§1) The Cyclooxygenase enzymes (COX-1 and 2) inhibitory potential of our test compounds was determined according to the previously reported procedure. […] The enzyme solutions with a concentration of 0.7–0.8 μg/10 μL (COX-1) and 300 U/mL (COX-2) were prepared. To start the assay, for enzyme activation, 10 µL enzyme solution (kept in a cool temperature of 4 °C for 5 min) and cofactor containing hematin (50 µL, 1 mM), glutathione (0.9 mM) and TMPD in a Tris-buffer (0.1 M) with a pH 8.0 was added. After that, 60 µL of the enzyme solution was added to 20 µL of the test samples of various concentrations and incubated at room temperature for 5 to 10 min. Then, 20 µL of arachidonic acid (30 mM) was added to start the reaction. The mixture was then again incubated for 15 min at 37 °C, and absorbances were measured at 570 nm with UV-visible spectrophotometer. […] The % enzyme inhibitions were calculated by using the previously reported formula.

The target in experiment [5] is T2, acetylcholinesterase (AChE) (Electrophorus electricus, UniProt O42275).
T2 construct: acetylcholinesterase (AChE, obtained from Electrophorus electricus); from tissue
Put plainly: Anticholinesterase assay (Ellman's), AChE inhibition. The class given is biochemical. The procedure:
(§2) This enzyme method relied on the hydrolytic of acetyl cholinethioiodide (ATChI) by acetylcholinesterase and butyrylthiocholine iodide (BTchI) by butyrylcholinesterase. As a result of this breakdown, 5-thio-2-nitrobenoate anions formed. […] The absorption was measured with a spectrophotometer, as per the protocols. […] An amount of 0.1 M phosphate buffer (8.0 ± 0.1 pH) solution was prepared, whose final pH was adjusted by using the KOH solution.
(§3) In this assay, 50 µL enzyme solution and 50 µL DTNB reagent were added to 1 mL test samples in a cuvette and then incubated at 30 °C for 15 min. Afterward, a 50 µL substrate solution was added to the mixture.
For orientation: DTNB colorimetry detects thiols as they appear.

Experiment [6] has as its target T3, butyrylcholinesterase (BChE) (Equus caballus, UniProt P81908).
T3 construct: butyrylcholinesterase (BChE, obtained from equine serum); from tissue; host or cells: equine serum
Put plainly: Anticholinesterase assay (Ellman's), BChE inhibition. The experiment is classed as biochemical, equine. The procedure: as §2, §3

For experiment [7], the target named is T4, COX-2 (Homo sapiens, UniProt P35354).
T4 sequence (P35354 18-604): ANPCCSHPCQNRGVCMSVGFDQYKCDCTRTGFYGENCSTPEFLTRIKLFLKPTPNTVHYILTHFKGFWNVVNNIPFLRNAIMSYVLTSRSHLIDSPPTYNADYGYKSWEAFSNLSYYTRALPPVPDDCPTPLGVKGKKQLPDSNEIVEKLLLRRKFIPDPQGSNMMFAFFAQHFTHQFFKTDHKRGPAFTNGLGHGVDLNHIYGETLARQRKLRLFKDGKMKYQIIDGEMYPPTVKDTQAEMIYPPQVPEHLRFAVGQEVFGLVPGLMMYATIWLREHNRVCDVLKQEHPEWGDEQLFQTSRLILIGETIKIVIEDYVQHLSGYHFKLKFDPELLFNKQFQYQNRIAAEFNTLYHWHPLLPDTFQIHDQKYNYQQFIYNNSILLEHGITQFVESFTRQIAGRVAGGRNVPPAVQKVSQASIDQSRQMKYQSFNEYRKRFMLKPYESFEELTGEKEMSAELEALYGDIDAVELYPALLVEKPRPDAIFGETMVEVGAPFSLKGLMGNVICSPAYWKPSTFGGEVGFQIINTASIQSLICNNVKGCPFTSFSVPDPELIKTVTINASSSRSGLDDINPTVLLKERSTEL
Description: biochemical. On the procedure: as §1

[8] abbreviates: 1000 μg/mL, listed as compound 1.

T2 sequence (O42275 24-633): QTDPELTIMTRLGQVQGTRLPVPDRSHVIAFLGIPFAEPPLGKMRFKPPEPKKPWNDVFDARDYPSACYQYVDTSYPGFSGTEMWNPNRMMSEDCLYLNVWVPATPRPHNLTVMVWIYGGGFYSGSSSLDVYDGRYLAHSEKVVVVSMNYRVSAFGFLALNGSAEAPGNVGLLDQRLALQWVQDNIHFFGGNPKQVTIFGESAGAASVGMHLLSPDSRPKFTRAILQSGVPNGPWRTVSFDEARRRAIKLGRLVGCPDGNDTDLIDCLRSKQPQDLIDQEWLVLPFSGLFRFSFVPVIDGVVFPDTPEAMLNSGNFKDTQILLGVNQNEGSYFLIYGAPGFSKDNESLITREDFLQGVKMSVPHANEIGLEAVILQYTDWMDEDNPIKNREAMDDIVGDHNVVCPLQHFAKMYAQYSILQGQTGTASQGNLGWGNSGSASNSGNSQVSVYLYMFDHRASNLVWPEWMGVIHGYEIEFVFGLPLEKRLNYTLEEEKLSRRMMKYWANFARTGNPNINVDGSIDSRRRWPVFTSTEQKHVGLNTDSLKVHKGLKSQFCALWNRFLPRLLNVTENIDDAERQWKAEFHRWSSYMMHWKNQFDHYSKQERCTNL
T3 sequence (P81908 whole entry): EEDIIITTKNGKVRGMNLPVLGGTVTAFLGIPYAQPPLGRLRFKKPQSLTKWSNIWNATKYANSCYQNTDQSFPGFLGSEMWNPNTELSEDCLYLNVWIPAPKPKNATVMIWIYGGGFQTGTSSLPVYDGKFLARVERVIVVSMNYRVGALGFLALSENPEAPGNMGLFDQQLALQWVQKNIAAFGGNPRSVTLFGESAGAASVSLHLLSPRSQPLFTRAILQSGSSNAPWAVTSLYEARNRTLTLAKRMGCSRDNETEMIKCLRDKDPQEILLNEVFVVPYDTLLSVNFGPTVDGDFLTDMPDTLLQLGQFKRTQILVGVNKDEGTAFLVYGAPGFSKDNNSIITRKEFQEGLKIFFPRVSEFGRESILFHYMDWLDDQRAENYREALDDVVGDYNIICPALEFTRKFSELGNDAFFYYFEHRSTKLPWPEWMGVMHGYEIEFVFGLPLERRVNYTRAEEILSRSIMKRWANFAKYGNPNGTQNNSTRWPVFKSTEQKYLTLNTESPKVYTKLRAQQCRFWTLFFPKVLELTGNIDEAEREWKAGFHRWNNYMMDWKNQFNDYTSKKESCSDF
Sequence of COX-1 (P23219 24-599): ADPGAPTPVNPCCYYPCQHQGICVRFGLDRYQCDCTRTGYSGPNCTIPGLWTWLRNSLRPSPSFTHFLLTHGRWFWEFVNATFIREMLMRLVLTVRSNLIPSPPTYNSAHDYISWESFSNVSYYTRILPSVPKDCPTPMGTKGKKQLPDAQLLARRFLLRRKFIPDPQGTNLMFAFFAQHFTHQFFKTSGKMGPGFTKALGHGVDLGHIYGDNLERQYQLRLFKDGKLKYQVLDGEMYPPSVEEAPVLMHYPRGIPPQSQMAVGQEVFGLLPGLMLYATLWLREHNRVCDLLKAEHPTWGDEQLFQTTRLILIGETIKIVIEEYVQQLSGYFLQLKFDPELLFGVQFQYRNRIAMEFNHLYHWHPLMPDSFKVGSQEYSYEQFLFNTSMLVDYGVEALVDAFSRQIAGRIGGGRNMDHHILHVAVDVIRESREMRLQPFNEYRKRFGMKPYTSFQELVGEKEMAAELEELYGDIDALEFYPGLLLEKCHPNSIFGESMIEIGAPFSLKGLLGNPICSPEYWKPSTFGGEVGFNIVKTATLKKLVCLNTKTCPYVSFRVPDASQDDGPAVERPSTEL

Consider `CC(C)(O)c1ccccc1CC[C@@H](SCC1(CC(=O)O)CC1)c1cccc(/C=C/c2ccc3ccc(Cl)cc3n2)c1` [Montelukast, montelukast, reference compound], for which the IC50 in experiment [1] is 7.68 µM. Besides, the inhibition at 62.5 µg/mL in experiment [1] (62.50 μg/mL) was 74.17 ± 0.72%. In addition, in experiment [1] (125 μg/mL), the inhibition at 125 µg/mL turned out to be 79.6 ± 0.9%. In addition, the inhibition at 250 µg/mL in experiment [1] (250 μg/mL) stood at 85.5 ± 0.4%. The inhibition at 500 µg/mL in experiment [1] (500 μg/mL) came to 89.4 ± 1.65%. Also, in experiment [1] (1000 μg/mL), the inhibition at 1000 µg/mL came to 93.55 ± 0.4%.
For the compound `O=C1O[C@H]([C@@H](O)CO)C(O)=C1O` [AA, Ascorbic acid, reference compound], the “ABTS IC50” value in experiment [2] was determined as 21.72 µg/mL. For the same compound, the “Percent ABTS Activity (mean ± SEM)” value came to 53.00 ± 0.57% in experiment [2] (62.5 μg/mL); 62.50 ± 0.44% in experiment [2] (125 μg/mL); 66.33 ± 0.33% in experiment [2] (250 μg/mL); 74.66 ± 1.20% in experiment [2] (500 μg/mL); 79.00 ± 0.16% in experiment [2] (1000 μg/mL). For the same compound, in experiment [3], the “DPPH IC50” value came out at 11.47 µg/mL. Further, the “Percent DPPH Activity (mean ± SEM)” value in experiment [3] (62.5 μg/mL) is 61.30 ± 0.52%; in experiment [3] (125 μg/mL) it was 66.37 ± 0.58%; in experiment [3] (250 μg/mL), 72.29 ± 0.43%; in experiment [3] (500 μg/mL), 78.58 ± 0.56%; in experiment [3] (1000 μg/mL) it was 84.39 ± 0.60%.
As to `CC(=O)Oc1ccccc1C(=O)O` [Aspirin, aspirin, reference compound], the inhibition at 62.5 µg/mL in experiment [4] (62.50 μg/mL) was determined as 51.68 ± 0.22%. Moreover, the inhibition at 125 µg/mL in experiment [4] (125 μg/mL) was found to be 59.84 ± 0.32%. Moreover, in experiment [4] (250 μg/mL), the inhibition at 250 µg/mL came to 66.43 ± 0.29%. Moreover, the inhibition at 500 µg/mL in experiment [4] (500 μg/mL) was found to be 71.88 ± 0.2%. In addition, the inhibition at 1000 µg/mL in experiment [4] (1000 μg/mL) was determined as 75.89 ± 0.2%.
For the compound `CC(C)C/C=C\C(C)C1CCC2C3CCC4=CC(=O)CCC4(C)C3CCC12C` (stereo not drawn) [Compound 1, (Z)-10,13-dimethyl-17-(6-methylhept-3-en-2-yl)-1,2,6,7,8,9,10,11,12,13,14,15,16,17-tetradecahydro-3H-cyclopenta[a]phenanthren-3-one], the “AChE inhibition (%)” value in experiment [5] (62.5 μg/mL) is 55.56 ± 0.52 %; in experiment [5] (125 μg/mL), 64.78 ± 0.60 %; in experiment [5] (250 μg/mL), 71.46 ± 0.53 %; in experiment [5] (500 μg/mL), 77.68 ± 0.63 %; in experiment [5] (1000 μg/mL) it was 85.72 ± 0.79 ^ns %. Also, the half-maximal inhibitory concentration (IC50) in experiment [5] (read-out: AChE IC50 (converted)) is 53 µM; in experiment [6], 71.5 µM; in experiment [7], 28 µM; in experiment [1], 19.3 µM. Moreover, the “Percent BChE (mean ± SEM)” value came to 59.81 ± 0.65 % in experiment [6] (62.5 μg/mL); 66.65 ± 0.78 % in experiment [6] (125 μg/mL); 75.70 ± 0.62 % in experiment [6] (250 μg/mL); 80.76 ± 0.63 % in experiment [6] (500 μg/mL); 84.83 ± 0.62 % in experiment [6] (1000 μg/mL). Moreover, the inhibition at 62.5 µg/mL was found to be 22.4 ± 0.49% in experiment [4], 61.1 ± 0.7% in experiment [7] (read-out: % COX-2 Inhibition) and 65.68 ± 0.64% in experiment [1]. Moreover, the values for the inhibition at 125 µg/mL in experiment [4], in experiment [7] (read-out: % COX-2 Inhibition) and in experiment [1] were 40.6 ± 0.84%, 66.4 ± 0.7% and 71.42 ± 0.46%, respectively. In addition, the inhibition at 250 µg/mL in experiment [4] is 43.5 ± 0.46%; in experiment [7] (read-out: % COX-2 Inhibition) it was 72.7 ± 0.51%; in experiment [1] it was 76.53 ± 0.41%. The inhibition at 500 µg/mL in experiment [4] turned out to be 59.56 ± 0.45%; in experiment [7] (read-out: % COX-2 Inhibition) it was 78.83 ± 0.73%; in experiment [1], 82.45 ± 0.55%. For the same compound, the values for the inhibition at 1000 µg/mL in experiment [4], in experiment [7] (read-out: % COX-2 Inhibition) and in experiment [1] were 66.29 ± 0.43%, 83.13 ± 0.8% and 87.63 ± 0.64%, respectively. Besides, the “ABTS IC50” value in experiment [2] was 369.86 µg/mL. For the same compound, the “Percent ABTS Activity (mean ± SEM)” value in experiment [2] (62.5 μg/mL) is on record as 29.67 ± 0.61 %; in experiment [2] (125 μg/mL), 35.69 ± 0.77 %; in experiment [2] (250 μg/mL), 43.83 ± 0.56 %; in experiment [2] (500 μg/mL), 54.60 ± 0.80 %; in experiment [2] (1000 μg/mL) it was 62.61 ± 0.77 %; in experiment [2] (setting [8]) it was 62.61 ± 0.77%. The “DPPH IC50” value in experiment [3] worked out at 314.78 µg/mL. Besides, the “Percent DPPH Activity (mean ± SEM)” value is 31.53 ± 0.71 % in experiment [3] (62.5 μg/mL); 37.51 ± 0.77 % in experiment [3] (125 μg/mL); 45.75 ± 0.58 % in experiment [3] (250 μg/mL); 56.45 ± 0.49 % in experiment [3] (500 μg/mL); 64.79 ± 0.62 % in experiment [3] (1000 μg/mL); 64.79 ± 0.62% in experiment [3] (setting [8]).

As a reminder, the IC50 is the concentration needed to halve the response being measured. Broadly, the inhibition is how much of the control response was suppressed.
